This note sets out measurements from patent EP0001395A2, “Substituted N-phenyl-2,5-pyrrolidinones, method for their preparation and their use as fungicides” (BAYER AG, priority 1977, dated 1979).

One assay concerns Botrytis cinerea. The experiment in a line: Botrytis test (beans) / protective. It is filed as in vivo. The note with it: protective spray on Phaseolus vulgaris, inoculation after 24 h, lesion size rated 3 days after inoculation; compared with Tetramethyl-thiuramidisulfid. The text has this:
Botrytis-Test (Bohnen) / protektiv
• Lösungsmittel: 4,7 Gewichtsteile Aceton • Dispergiermittel: 0,3 Gewichtsteile Alkyl-arylpolyglykoläther • Wasser: 95,0 Gewichtsteile
Man vermischt die für die gewünschte Wirkstoffkonzentration in der Spritzflüssigkeit nötige Wirkstoffmenge mit der angegebenen Menge des Lösungsmittels und verdünnt das Konzentrat mit der angegebenen Menge Wasser, welches die genannten Zusätze enthält.
Mit der Spritzflüssigkeit bespritzt man Pflanzen von Phaseolus vulgaris im 2-Blattstadium bis zur Tropfnässe. Nach 24 Stunden werden auf jedes Blatt 2 kleine mit Botrytis cinerea bewachsene Agarstückchen aufgelegt. Die inokulierten Pflanzen werden in einer abgedunkelten, feuchten Kammer bei 20°C aufgestellt. 3 Tage nach der Inokulation wird die Größe der Befallsflecken auf den Blättern bonitiert.
Die erhaltenen Boniturwerte werden auf Prozent Befall umgerechnet. 0 % bedeutet keinen Befall, 100 % bedeutet, daß der Befallsfleck vollständig ausgebildet ist.

For the next assay, the system named is Pellicularia sasakii. The experiment in a line: Pellicularia test (rice plants). The assay is classed as in vivo. The note with it: spray on rice plants, infection of leaf sheaths rated after 5 to 8 days; compared with Zinksalz der Athylenbis-dithiocarbamidsäure. The text has this: • Lösungsmittel: 11,75 Gewichtsteile Aceton • Dispergiermittel: 0,75 Gewichtsteile Alkyl-arylpolyglykoläther • Wasser: 987,50 Gewichtsteile • andere Zusätze: - Gewichtsteile -
Man vermischt die für die gewünschte Wirkstoffkonzentration in der Spritzflüssigkeit nötige Wirkstoffmenge mit der angegebenen Menge des Lösungsmittels und des Dispergiermittels und verdünnt das Konzentrat mit der angegebenen Menge Wasser.
Mit der Spritzflüssigkeit bespritzt man 30 etwa 2-4 Wochen alte Reispflanzen bis zur Tropfnässe. Die Pflanzen verbleiben bis zum Abtrocknen in einem Gewächshaus bei Temperaturen von 22 bis 24°C und einer relativen Luftfeuchtigkeit von etwa 70 %. Die Pflanzen werden mit einer auf Malzagar gezogenen Kultur von Pellicularia sasakii inokuliert und bei 28 bis 30°C sowie 100 % relativer Luftfeuchtigkeit aufgestellt.
Bei den mit Pellicularia sasakii infizierten Pflanzen wird der Befall nach 5 bis 8 Tagen an den Blattscheiden ebenfalls im Verhältnis zur unbehandelten, aber infizierten Kontrolle bestimmt. Die Auswertung erfolgt in Wertzahlen von 1 bis 9. 1 bedeutet 100%ige Wirkung, 3= gute Wirkung, 5 = mäßige Wirkung und 9 = keine Wirkung.

As to `O=C1CC(C2C=CCC2)C(=O)N1c1cc(Cl)cc(Cl)c1` (centres unmarked) [Beispiel 1, N-(3,5-Dichlorphenyl)-△ ^2-cyclopenten-1-yl-bernsteinsäureimid], the Wirkung result is reported as “gute, dem bekannten Tetramethyl-thiuramidisulfid überlegene Wirkung” in the assay with Botrytis cinerea and “gute, dem bekannten Zinksalz der Athylenbis-dithiocarbamidsäure überlegene Wirkung” in the assay on Pellicularia sasakii.
